Source: ChEMBL document CHEMBL6083236, “Identification of novel diarylpyrimidine derivatives as potent HIV-1 non-nucleoside reverse transcriptase inhibitors against wild-type and K103N mutant viruses” (Eur J Med Chem, 2024)

Key:
[1] = system: Human immunodeficiency virus 1; assay: Antiviral activity against HIV1 harboring F227L/V106A mutant infected in human MT4 cells assessed as reduction in virus induced cytopathic effect incubated for 5 days by Spectrophotometric based MTT assay; assay type: functional, organism-based; settings: Human immunodeficiency virus 1, MT4, 120 h
MT4 = assay: Cytotoxicity against human MT4 cells assessed as reduction in cell viability incubated for 5 days by Spectrophotometric based MTT assay; assay type: functional; settings: MT4, 120 h, time 5 day
[2] = system: Human immunodeficiency virus 1; assay: Antiviral activity against HIV1 harboring E138K mutant infected in human MT4 cells assessed as reduction in virus induced cytopathic effect incubated for 5 days by Spectrophotometric based MTT assay; assay type: functional, organism-based; settings: Human immunodeficiency virus 1, MT4, 120 h
[3] = system: Human immunodeficiency virus 1; assay: Antiviral activity against HIV1 harboring L100I mutant infected in human MT4 cells assessed as reduction in virus induced cytopathic effect incubated for 5 days by Spectrophotometric based MTT assay; assay type: functional, organism-based; settings: Human immunodeficiency virus 1, MT4, 120 h
[4] = Selectivity index, ratio of CC50 for cytotoxicity against human MT4 cells to EC50 for antiviral activity against wild type HIV1 IIIB infected in human MT4 cells; settings: MT4 cells
[5] = molecular target: Human immunodeficiency virus type 1 reverse transcriptase (Human immunodeficiency virus 1, UniProt Q72547); assay: Inhibition of wild type HIV1 reverse transcriptase assessed as inhibition of biotin deoxyuridine triphosphate incorporation into cDNA using DIG-labelled dNTP preincubated with compound for 1 hr followed by substrate addition in presence of biotin-labeled dNTPs by ELISA analysis
[6] = system: Human immunodeficiency virus 1; assay: Antiviral activity against HIV1 harboring Y181C mutant infected in human MT4 cells assessed as reduction in virus induced cytopathic effect incubated for 5 days by Spectrophotometric based MTT assay; assay type: functional, organism-based; settings: Human immunodeficiency virus 1, MT4, 120 h
[7] = system: Human immunodeficiency virus 1; assay: Antiviral activity against HIV1 harboring RES056 mutant infected in human MT4 cells assessed as reduction in virus induced cytopathic effect incubated for 5 days by Spectrophotometric based MTT assay; assay type: functional, organism-based; settings: Human immunodeficiency virus 1, RES056, MT4, 120 h
[8] = system: Human immunodeficiency virus 1; assay: Antiviral activity against wild type HIV1 IIIB infected in human MT4 cells assessed as reduction in virus induced cytopathic effect incubated for 5 days by Spectrophotometric based MTT assay; assay type: functional, organism-based; settings: Human immunodeficiency virus 1, IIIB, MT4, 120 h
[9] = system: Human immunodeficiency virus 1; assay: Antiviral activity against HIV1 harboring Y188L mutant infected in human MT4 cells assessed as reduction in virus induced cytopathic effect incubated for 5 days by Spectrophotometric based MTT assay; assay type: functional, organism-based; settings: Human immunodeficiency virus 1, MT4, 120 h
[10] = system: Human immunodeficiency virus 1; assay: Antiviral activity against HIV1 harboring K103 N mutant infected in human MT4 cells assessed as reduction in virus induced cytopathic effect incubated for 5 days by Spectrophotometric based MTT assay; assay type: functional, organism-based; settings: Human immunodeficiency virus 1, MT4, 120 h
[11] = Selectivity index, ratio of CC50 for cytotoxicity against human MT4 cells to EC50 for antiviral activity against HIV1 RES056 mutant infected in human MT4 cells; settings: MT4 cells

SMILES | EC50 [1] [nM] | CC50 (MT4) [nM] | EC50 [2] [nM] | EC50 [3] [nM] | selectivity ratio [4] | IC50 [5] [nM] | EC50 [6] [nM] | EC50 [7] [nM] | EC50 [8] [nM] | EC50 [9] [nM] | EC50 [10] [nM] | selectivity ratio [11]
Cc1cc(/C=C/C#N)cc(C)c1Oc1ccnc(Nc2ccc(N3CCN(S(C)(=O)=O)C3=O)c(C#N)c2)n1 | 110 | 35300 | 38 | 6 | 29900 | 240 | 14 | 180 | 1 | 1770 | 2 | 192
Cc1cc(/C=C/C#N)cc(C)c1Oc1ccnc(Nc2ccc(N3CCN(S(N)(=O)=O)CC3)c(C#N)c2)n1 | 13 | 5880 | 29 | 7 | 1540 | 130 | 32 | 230 | 4 | 1170 | 3 | 26
